Measurements taken from ChEMBL document CHEMBL5608253, “Discovery and Optimization of Aryl Piperidinone Ureas as Selective Formyl Peptide Receptor 2 Agonists” (ACS Med Chem Lett, 2024).

Tests used:
[1] = target: T1, N-formyl peptide receptor 2 (Homo sapiens, UniProt P25090); test: Agonist activity at human FPR2 expressed in CHO cells assessed as forskolin -induced cAMP level incubated for 30 mins in presence of IBMX by HTRF HiRange cAMP assay; format: functional, cell-based
T1 sequence (P25090 whole entry): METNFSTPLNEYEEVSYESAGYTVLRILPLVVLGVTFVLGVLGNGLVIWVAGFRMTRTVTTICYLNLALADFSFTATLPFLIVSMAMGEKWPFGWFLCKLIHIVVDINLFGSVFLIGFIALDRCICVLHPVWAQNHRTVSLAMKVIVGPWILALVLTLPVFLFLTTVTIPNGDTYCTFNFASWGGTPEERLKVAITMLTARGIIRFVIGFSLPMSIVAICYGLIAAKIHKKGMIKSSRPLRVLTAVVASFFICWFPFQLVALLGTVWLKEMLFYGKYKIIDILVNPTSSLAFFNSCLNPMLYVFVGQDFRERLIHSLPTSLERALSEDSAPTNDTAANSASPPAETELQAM

[2] = target: Cytochrome P450 2D6 (Homo sapiens, UniProt P10635); test: Inhibition of CYP2D6 (unknown origin); format: ADME
Cytochrome P450 2D6, sequence (P10635 whole entry): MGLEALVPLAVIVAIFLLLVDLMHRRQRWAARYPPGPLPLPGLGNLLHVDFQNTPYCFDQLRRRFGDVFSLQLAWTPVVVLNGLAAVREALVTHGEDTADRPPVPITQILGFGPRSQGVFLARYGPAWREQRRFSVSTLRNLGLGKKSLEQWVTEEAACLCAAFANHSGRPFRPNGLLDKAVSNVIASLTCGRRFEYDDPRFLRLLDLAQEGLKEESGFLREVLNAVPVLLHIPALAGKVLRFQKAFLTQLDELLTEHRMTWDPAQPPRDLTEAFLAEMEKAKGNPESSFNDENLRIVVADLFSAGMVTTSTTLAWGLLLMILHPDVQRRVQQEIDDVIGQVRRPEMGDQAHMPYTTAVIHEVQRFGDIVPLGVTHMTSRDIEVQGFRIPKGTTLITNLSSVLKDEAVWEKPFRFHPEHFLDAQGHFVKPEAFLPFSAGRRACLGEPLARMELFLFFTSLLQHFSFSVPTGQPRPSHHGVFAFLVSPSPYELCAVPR

[3] = Drug concentration in plasma of LPS-treated rat model at 10 mg/kg measured after 2 hrs; format: ADME, organism-based
[4] = Protein binding in human plasma assessed as free fraction; format: ADME, cell-free
[5] = target: T2, Cytochrome P450 1A2 (Homo sapiens, UniProt P05177); test: Inhibition of CYP1A2 (unknown origin); format: ADME
T2 sequence (P05177 whole entry): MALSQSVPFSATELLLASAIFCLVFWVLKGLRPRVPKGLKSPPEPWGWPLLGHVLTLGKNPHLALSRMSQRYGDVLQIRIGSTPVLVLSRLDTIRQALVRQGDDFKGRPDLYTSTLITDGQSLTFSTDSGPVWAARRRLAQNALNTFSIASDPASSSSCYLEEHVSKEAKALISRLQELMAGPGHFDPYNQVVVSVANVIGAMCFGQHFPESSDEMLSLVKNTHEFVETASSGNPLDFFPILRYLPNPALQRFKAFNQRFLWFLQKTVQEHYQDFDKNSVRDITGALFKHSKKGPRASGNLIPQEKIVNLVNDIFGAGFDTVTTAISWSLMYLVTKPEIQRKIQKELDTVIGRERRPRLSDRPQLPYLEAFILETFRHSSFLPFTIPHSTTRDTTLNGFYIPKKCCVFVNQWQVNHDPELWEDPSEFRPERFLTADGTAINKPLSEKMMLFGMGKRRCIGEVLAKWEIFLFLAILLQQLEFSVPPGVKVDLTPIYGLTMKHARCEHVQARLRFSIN

[6] = Cmax in rat at 3 mg/kg, po; format: ADME, organism-based; settings: in vivo
[7] = Agonist activity at rat FPR2 by cAMP assay
[8] = system: Rattus norvegicus; test: Anti-inflammatory activity in LPS-treated rat model assessed as increase in IL-10 level at 10 mg/kg measured after 2 hrs relative to control; format: functional
[9] = target: Cytochrome P450 3A4 (Homo sapiens, UniProt P08684); test: Inhibition of CYP3A4 (unknown origin); format: ADME
Cytochrome P450 3A4, sequence (P08684 whole entry): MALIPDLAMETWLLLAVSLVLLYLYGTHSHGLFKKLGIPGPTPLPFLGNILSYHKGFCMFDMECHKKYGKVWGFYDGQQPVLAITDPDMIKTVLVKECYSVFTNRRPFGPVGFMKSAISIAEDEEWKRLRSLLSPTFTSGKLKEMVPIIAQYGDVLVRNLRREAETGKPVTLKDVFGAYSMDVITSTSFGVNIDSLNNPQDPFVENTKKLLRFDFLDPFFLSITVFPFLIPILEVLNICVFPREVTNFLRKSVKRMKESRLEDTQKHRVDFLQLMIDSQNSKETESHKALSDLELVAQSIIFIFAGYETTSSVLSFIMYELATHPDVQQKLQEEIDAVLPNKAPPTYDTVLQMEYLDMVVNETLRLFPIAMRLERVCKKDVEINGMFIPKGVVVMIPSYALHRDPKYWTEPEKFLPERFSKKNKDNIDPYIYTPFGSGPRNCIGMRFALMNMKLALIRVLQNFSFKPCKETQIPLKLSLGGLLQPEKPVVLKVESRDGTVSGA

[10] = Protein binding in rat plasma assessed as free fraction; format: ADME, cell-free
[11] = target: Cytochrome P450 2C19 (Homo sapiens, UniProt P33261); test: Inhibition of CYP2C19 (unknown origin); format: ADME
Cytochrome P450 2C19, sequence (P33261 whole entry): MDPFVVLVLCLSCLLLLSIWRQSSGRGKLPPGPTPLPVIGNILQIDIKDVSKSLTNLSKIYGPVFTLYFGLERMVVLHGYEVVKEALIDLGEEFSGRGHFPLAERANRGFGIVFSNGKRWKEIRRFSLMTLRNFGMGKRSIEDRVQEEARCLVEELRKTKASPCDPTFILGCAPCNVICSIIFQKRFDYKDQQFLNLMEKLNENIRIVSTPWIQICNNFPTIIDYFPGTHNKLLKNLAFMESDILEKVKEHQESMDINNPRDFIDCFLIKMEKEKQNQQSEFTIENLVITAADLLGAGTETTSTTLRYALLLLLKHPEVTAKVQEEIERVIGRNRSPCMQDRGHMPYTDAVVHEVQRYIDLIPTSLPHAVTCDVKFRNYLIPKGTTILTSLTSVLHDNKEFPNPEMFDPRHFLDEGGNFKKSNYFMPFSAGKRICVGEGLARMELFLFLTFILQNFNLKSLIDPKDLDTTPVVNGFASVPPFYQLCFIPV

[12] = Permeability across basal to apical side in human Caco-2 cells; format: ADME, cell-based; settings: read-out: permeability
[13] = AUC (total) in rat at 3 mg/kg, po; format: ADME, organism-based; settings: in vivo
[14] = Permeability across apical to basal side in human Caco-2 cells; format: ADME, cell-based; settings: read-out: permeability
[15] = target: Cytochrome P450 2C9 (Homo sapiens, UniProt P11712); test: Inhibition of CYP2C9 (unknown origin); format: ADME
Cytochrome P450 2C9, sequence (P11712 whole entry): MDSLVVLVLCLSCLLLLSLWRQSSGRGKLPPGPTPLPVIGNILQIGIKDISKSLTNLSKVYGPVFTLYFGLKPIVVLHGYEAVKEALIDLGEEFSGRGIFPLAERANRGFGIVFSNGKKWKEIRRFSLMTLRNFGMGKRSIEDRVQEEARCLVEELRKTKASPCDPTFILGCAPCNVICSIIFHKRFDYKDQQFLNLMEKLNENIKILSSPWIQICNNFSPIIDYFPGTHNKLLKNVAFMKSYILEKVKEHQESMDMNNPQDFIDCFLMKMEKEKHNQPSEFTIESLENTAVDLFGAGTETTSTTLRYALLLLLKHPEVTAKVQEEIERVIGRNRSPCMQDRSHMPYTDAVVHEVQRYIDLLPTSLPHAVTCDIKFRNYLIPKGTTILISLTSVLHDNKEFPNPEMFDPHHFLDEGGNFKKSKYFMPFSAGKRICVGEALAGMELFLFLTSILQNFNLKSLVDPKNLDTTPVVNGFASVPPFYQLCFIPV

| SMILES | EC50 [1] | INH [2] | concentration at 2 h [3] | fraction unbound [4] | INH [5] | Cmax [6] | EC50 [7] | Activity [8] | INH [9] | fraction unbound [10] | INH [11] | Papp B→A [12] | AUC [13] | Papp A→B [14] | INH [15] |
| --- | --- | --- | --- | --- | --- | --- | --- | --- | --- | --- | --- | --- | --- | --- | --- |
| CS(=O)(=O)Nc1ccccc1-c1ccc(N2CCC[C@@H](NC(=O)Nc3ccc(C(F)(F)F)nc3)C2=O)cc1 | 10 nM |  |  |  |  |  |  |  |  |  |  |  |  |  |  |
| CS(=O)(=O)Nc1ccccc1-c1ccc(N2CCC[C@@H](NC(=O)Nc3ccc(C(F)(F)F)cc3)C2=O)cc1 | 0.14 nM | > 10 µM | 610 nM | 0.01 | > 10 µM | 110 nM | 0.5 nM | 183% | > 10 µM | 0.01 | > 10 µM | 32.5 ×10⁻⁶ cm/s | 0.45 µM·h | < 1.5 ×10⁻⁶ cm/s | > 10 µM |
| NC(=O)c1ccccc1-c1ccc(N2CCC[C@@H](NC(=O)Nc3ccc(C(F)(F)F)cc3)C2=O)cc1 | 2.8 nM |  |  |  |  |  |  |  |  |  |  |  |  |  |  |
| CS(=O)(=O)Nc1ccccc1-c1ccc(N2CCC[C@@H](NC(=O)Nc3ccc(Cl)cc3F)C2=O)cc1 | 0.2 nM | > 10 µM | 1700 nM | 0.03 | > 10 µM | 610 nM | 0.6 nM | 128% | > 10 µM | 0.03 | > 10 µM | 29.1 ×10⁻⁶ cm/s | 2.7 µM·h | 4.4 ×10⁻⁶ cm/s | > 10 µM |
| CS(=N)(=O)c1ccccc1-c1ccc(N2CCC[C@@H](NC(=O)Nc3ccc(C(F)(F)F)cc3)C2=O)cc1 (stereo in doubt; 10) | 9 nM |  |  |  |  |  |  |  |  |  |  |  |  |  |  |
| COc1ccc(NC(=O)N[C@@H]2CCCN(c3ccc(-c4ccccc4NS(C)(=O)=O)cc3)C2=O)cc1 | 0.3 nM |  |  |  |  |  |  |  |  |  |  |  |  |  |  |
| CS(=O)(=O)Nc1ccccc1-c1ccc(N2CCC[C@@H](NC(=O)Nc3ccc(C(F)(F)F)cc3F)C2=O)cc1 | 0.6 nM |  |  |  |  |  |  |  |  |  |  |  |  |  |  |
| CS(=N)(=O)c1ccccc1-c1ccc(N2CCC[C@@H](NC(=O)Nc3ccc(C(F)(F)F)cc3)C2=O)cc1 (stereo in doubt; 9) | 1.6 nM |  |  |  |  |  |  |  |  |  |  |  |  |  |  |
| CS(=O)(=O)Nc1ccccc1-c1ccc(N2CCC[C@@H](NC(=O)Nc3ccc(C(F)(F)F)cn3)C2=O)cc1 | 4.5 nM |  |  |  |  |  |  |  |  |  |  |  |  |  |  |
| CS(=O)(=O)Nc1ccccc1-c1ccc(N2CCC[C@@H](NC(=O)Nc3ccc(Cl)cc3)C2=O)cc1 | 0.15 nM | > 10 µM | 490 nM | 0.02 | > 10 µM | 300 nM | 0.4 nM | 140% | > 10 µM | 0.01 | > 10 µM | 41.8 ×10⁻⁶ cm/s | 1.13 µM·h | < 1.5 ×10⁻⁶ cm/s | > 10 µM |
| COc1cnc(NC(=O)N[C@@H]2CCCN(c3ccc(-c4ccccc4NS(C)(=O)=O)cc3)C2=O)c(F)c1 |  | > 10 µM |  | 0.12 | > 10 µM | 830 nM |  |  | > 10 µM | 0.08 | > 10 µM | 44 ×10⁻⁶ cm/s | 1.7 µM·h | 11 ×10⁻⁶ cm/s | > 10 µM |
